Results published in US5696276A, “Process for preparing 5,8-dihydroxynaphthoquinone derivatives, novel 5,8-dihydroxynaphthoquinone derivatives and their use as anticancer agent” (Kuhnil Pharmaceutical Co., Ltd., priority 1993, dated 1997).
≈ marks a conversion by molar mass, not a printed value. Like-named read-outs stand apart in the source and are kept apart here.

Assays:
L1210 cells = test: Cytotoxic activity against L1210 cells; format: cell-based; details: Mus musculus, read-out: ED50, cytotoxic activity against L1210
Summary of the method: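 Log-phase L1210 cells (5×10^4 cells/ml) in Fisher medium exposed 48 h at 37 °C in CO2 to three dilutions of sample dissolved in ethanol or DMSO. Cells counted by haemacytometer; growth relative to control; ED50 (μg/ml) from linear regression of growth % on log concentration.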

HL-60 cells = test: Cytotoxic activity against HL-60 cells; format: cell-based; details: Homo sapiens, read-out: ED50, cytotoxic activity against HL-60
Description: As in the test for the cytotoxic activity against L1210 cells, the test samples were dissoved in ethanol or dimethylsulfoxide in a certain concentration. 0.1 ml of the sample solution was mixed with 0.9 ml of a fresh medium to prepare the dilutions. To each two test tubes having a screw cap were added 100, 50, 25 μl, respectively, of the sample dilutions by means of a micropipet. To each test tube for the test group and the control group (2√n: n=number of the samples) was added 5 ml of the dilutions of HL-60 cells and K-562 cells which were cultured and activated before 24 hours from the beginning of experiment and then diluted in a concentration of 1×10^5 cells/mi. All test tubes were cultured for 48 hours in a CO2 incubator at 37° C. and then the number of cells was counted using a haemacytometer.
The ED50 value is defined as a concentration (μg/ml) of the sample which inhibits the growth of cancer cells by 50% of the control group and determined according to a method described in NIC's mannual (NIC=National Cancer Institue, U.S.A.). The growth rate Y(%) of cells in the presence of the test sample in each concentration was calculated according to the followign equation: […]
In the above equation, T means the average cell number per ml in the test group after incubation for 48 hours in the presence of the test samples in each concentration, C means the average cell number per ml in the control group after incubation for 48 hours, and Co means the average cell number per ml in the control group at the beginning of incubation. The Y(%) value at each concentration and log10 value of each concentration were obtained and the regression curve was constructed according to the following equation from those obtained values. In this case, when all the Y(%) value obtained at each concentration is greater than 55% or lower than 45%, the experiment was repeatedly conducted.
To construct the regression curve Y=A+BX the values A and B were obtained using the following equation. [formula]
In the above, the value N is the number of selected points which is greater than 2 and lower than, or identical with, the number of cencentration of the test sample, Xi is log(concentration) i, and Yi is the growth ratio at (concentration)i. The value of ED50 was obtained for those obtained slope and intercept.

A549 cancer cells = test: Cytotoxic activity against A549 cancer cells (sulforhodamin B method); format: cell-based; details: Homo sapiens, read-out: ED50, cytotoxic activity against A549
Summary of the method: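 Cells seeded at 8×10^4 per well, attached 24 h, then exposed 48 h to six log-spaced concentrations in triplicate. TCA-fixed, SRB-stained, OD read at 520 nm; growth inhibition computed relative to time-zero and untreated counts, IC50 from regression.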

S-180 sarcoma cells = test: Animal experiment using Sarcoma S-180 cells (survival of mouse); format: in vivo, male ICR mouse; details: for responders at 15 µmol/kg / response vs control in vivo at 15 µmol/kg / responders at 10 µmol/kg / response vs control in vivo at 10 µmol/kg: ip, S-180 ICR mouse, intraperitoneal, 7 to 8 injections; for responders at 15 µmol/kg / response vs control in vivo at 15 µmol/kg: daily dose 15 μmole (mg/kg/day given per compound); for responders at 15 µmol/kg / responders at 10 µmol/kg: read-out: Number of mouse survived for 50 days (converted); for responders at 10 µmol/kg / response vs control in vivo at 10 µmol/kg: daily dose 10 μmole (mg/kg/day given per compound)
Summary of the method: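 Male ICR mice (20 to 25 g) received intraperitoneal transplants of 0.1 ml S-180 cell suspension (10^7 cells/ml), prepared from ascites by washing in cold physiological saline. After 24 hours, groups of 8 to 9 mice received 7 to 8 ip injections of sample in dimethylsulfoxide diluted with saline. Controls got 2% dimethylsulfoxide-saline. Survival (T/C, %) was scored against control death.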

[1] = A549 cells, SRB method, 48 hours

SMILES | IC50 (L1210 cells; L1210 cells, 48 hours, 37° C.) [µg/mL] | IC50 (HL-60 cells; HL-60 cells, 48 hours, 37° C.) [µg/mL] | IC50 (A549 cancer cells; [1]) [µg/mL] | responders at 15 µmol/kg (S-180 sarcoma cells; 1200 h) [%] | response vs control in vivo at 15 µmol/kg (S-180 sarcoma cells; read-out: T/C) [%] | responders at 10 µmol/kg (S-180 sarcoma cells; 1200 h) [%] | response vs control in vivo at 10 µmol/kg (S-180 sarcoma cells; read-out: T/C) [%] | IC50 (L1210 cells; L1210, 48 h) [µg/mL] | IC50 (HL-60 cells; HL-60, 48 h) [µg/mL] | IC50 (A549 cancer cells; A549, 48 h) [µg/mL] | responders at 5 µmol/kg (S-180 sarcoma cells; Mus musculus, S-180, ip, 1200 h, read-out: Number of mouse survived for 50 days) [%] | response vs control in vivo at 5 µmol/kg (S-180 sarcoma cells; Mus musculus, S-180, ip, read-out: T/C) [%]
CCCCCCCCCCCC(=O)OC(CC=C(C)C)C1=CC(=O)c2c(O)ccc(O)c2C1=O (stereo not drawn) | 0.7 (≈ 1.49 µM) | 1 (≈ 2.12 µM) | > 20 | 0 | 110 |  |  |  |  |  |  | 
CCCCCCCC/C=C\CCCCCCCC(=O)OC(CC=C(C)C)C1=CC(=O)c2c(O)ccc(O)c2C1=O (stereo not drawn) | 2.4 (≈ 4.34 µM) | 9.6 (≈ 17.4 µM) | > 20 | 0 | 130 |  |  |  |  |  |  | 
CCCCCCCCCCCCCCCCCC(=O)OC(CC=C(C)C)C1=CC(=O)c2c(O)ccc(O)c2C1=O (stereo not drawn) | 1.1 (≈ 1.98 µM) | 10 (≈ 18 µM) | > 20 | 0 | 110 |  |  |  |  |  |  | 
CC(C)=CCC(OC(=O)c1ccccc1)C1=CC(=O)c2c(O)ccc(O)c2C1=O (stereo not drawn) [2-(1-benzoyloxy-4-methyl-3-pentenyl)-5,8-dihydroxy-1,4-naphthoquinone] | 0.1 (≈ 0.255 µM) | 0.1 (≈ 0.255 µM) | 2.1 (≈ 5.35 µM) |  |  | 0 | 135 |  |  |  |  | 
CC(C)=CCC(OC(=O)C(c1ccccc1)c1ccccc1)C1=CC(=O)c2c(O)ccc(O)c2C1=O (stereo not drawn) [2-(1-diphenylacetyloxy-4-methyl-3-pentenyl)-5,8-dihydroxy-1,4-naphthoquinone] | 0.2 (≈ 0.414 µM) | 0.4 (≈ 0.829 µM) | 6.3 (≈ 13.1 µM) | 25 | 208 |  |  |  |  |  |  | 
CC(C)=CCC(OC(=O)C(C)C)C1=CC(=O)c2c(O)ccc(O)c2C1=O (stereo not drawn) [2-(1-isobutanoyloxy-4-methyl-3-pentenyl)-5,8-dihydroxy-1,4-naphthoquinone] | 0.003 (≈ 0.00837 µM) | 0.2 (≈ 0.558 µM) | 1.9 (≈ 5.3 µM) |  |  | 12.5 | 185 |  |  |  |  | 
CCC=CCC=CCC=CCCCCCCCC(=O)OC(CC=C(C)C)C1=CC(=O)c2c(O)ccc(O)c2C1=O (stereo not drawn) [2-(1-linolenyloxy-4-methyl-3-pentenyl)-5,8-dihydroxy-1,4-naphthoquinone] | 1.5 (≈ 2.73 µM) | 4.8 (≈ 8.75 µM) | > 20 | 0 | 125 |  |  |  |  |  |  | 
CC(C)=CCC(OC(=O)CCl)C1=CC(=O)c2c(O)ccc(O)c2C1=O (stereo not drawn) [2-(1-monochloroacetyloxy-4-methyl-3-pentenyl)-5,8-dihydroxy-1,4-naphthoquinone] | 0.12 (≈ 0.329 µM) | 0.3 (≈ 0.822 µM) | 4 (≈ 11 µM) |  |  | 0 | 102 |  |  |  |  | 
CCCC(=O)OC(CC=C(C)C)C1=CC(=O)c2c(O)ccc(O)c2C1=O (stereo not drawn) [2-(1-n-butanoyloxy-4-methyl-3-pentenyl)-5,8-dihydroxy-1,4-naphthoquinone] | 0.01 (≈ 0.0279 µM) | 0.1 (≈ 0.279 µM) | 2.5 (≈ 6.98 µM) |  |  | 0 | 181 |  |  |  |  | 
CCCCCCCCCC(=O)OC(CC=C(C)C)C1=CC(=O)c2c(O)ccc(O)c2C1=O (stereo not drawn) [2-(1-n-decanoyloxy-4-methyl-3-pentenyl)-5,8-dihydroxy-1,4-naphthoquinone] | 0.7 (≈ 1.58 µM) | 1.1 (≈ 2.49 µM) | 15 (≈ 33.9 µM) | 0 | 110 |  |  |  |  |  |  | 
CCCCCC(=O)OC(CC=C(C)C)C1=CC(=O)c2c(O)ccc(O)c2C1=O (stereo not drawn) [2-(1-n-hexanoyloxy-4-methyl-3-pentenyl)-5,8-dihydroxy-1,4-naphthoquinone] | 0.2 (≈ 0.518 µM) | 0.7 (≈ 1.81 µM) | 2.6 (≈ 6.73 µM) |  |  | 33.3 | 214 |  |  |  |  | 
CCCCCCCCC(=O)OC(CC=C(C)C)C1=CC(=O)c2c(O)ccc(O)c2C1=O (stereo not drawn) [2-(1-n-nonanoyloxy-4-methyl-3-pentenyl)-5,8-dihydroxy-1,4-naphthoquinone] | 0.5 (≈ 1.17 µM) | 1 (≈ 2.33 µM) | 6.9 (≈ 16.1 µM) |  |  | 0 | 206 |  |  |  |  | 
CCCCCCCC(=O)OC(CC=C(C)C)C1=CC(=O)c2c(O)ccc(O)c2C1=O (stereo not drawn) [2-(1-n-octanoyloxy-4-methyl-3-pentenyl)-5,8-dihydroxy-1,4-naphthoquinone] | 0.2 (≈ 0.483 µM) | 0.7 (≈ 1.69 µM) | 4.3 (≈ 10.4 µM) | 22.2 | 235 |  |  |  |  |  |  | 
CCCCC(=O)OC(CC=C(C)C)C1=CC(=O)c2c(O)ccc(O)c2C1=O (stereo not drawn) [2-(1-n-pentanoyloxy-4-methyl-3-pentenyl)-5,8-dihydroxy-1,4-naphthoquinone] | 0.2 (≈ 0.537 µM) | 0.6 (≈ 1.61 µM) | 2.5 (≈ 6.71 µM) |  |  | 0 | 165 |  |  |  |  | 
CCC(=O)OC(CC=C(C)C)C1=CC(=O)c2c(O)ccc(O)c2C1=O (stereo not drawn) [2-(1-n-propionyloxy-4-methyl-3-pentenyl)-5,8-dihydroxy-1,4-naphthoquinone] |  |  |  |  |  |  |  | 0.03 (≈ 0.0871 µM) | 0.04 (≈ 0.116 µM) | 1.9 (≈ 5.52 µM) | 0 | 100
CCCCCCCCCCCCCCCC(=O)OC(CC=C(C)C)C1=CC(=O)c2c(O)ccc(O)c2C1=O (stereo not drawn) [2-(1-palmityloxy-4-methyl-3-pentenyl)-5,8-dihydroxy-1,4-naphthoquinone] | 2.1 (≈ 3.99 µM) | 3 (≈ 5.7 µM) | > 20 | 0 | 109 |  |  |  |  |  |  | 
CC(C)=CCC(OC(=O)Cc1ccccc1)C1=CC(=O)c2c(O)ccc(O)c2C1=O (stereo not drawn) [2-(1-phenylacetyloxy-4-methyl-3-pentenyl)-5,8-dihydroxy-1,4-naphthoquinone] | 0.1 (≈ 0.246 µM) | 0.4 (≈ 0.984 µM) | 1.1 (≈ 2.71 µM) |  |  | 0 | 183 |  |  |  |  | 
CC(C)=CCC(OC(=O)C(Cl)(Cl)Cl)C1=CC(=O)c2c(O)ccc(O)c2C1=O (stereo not drawn) [2-(1-trichloroacetyloxy-4-methyl-3-pentenyl)-5,8-dihydroxy-1,4-naphthoquinone] | 0.01 (≈ 0.0231 µM) | 0.3 (≈ 0.692 µM) | 2 (≈ 4.61 µM) |  |  | 0 | 134 |  |  |  |  | 
